Experimental data from patent publication US11834448B2, “2-amino-quinoline derivatives” (BIRDIE BIOPHARMACEUTICALS, INC., priority 2017, dated 2023).

Legend:
[1] = test system: Human PBMCs; experiment: Cytokine production in PBMCs: human IFN-α by ELISA; type: cell-based; design: key: ″+″ means that there was production of IFNa or IL-6 on PBMC; ″−″means that noproduction of IFNa or IL-6 on PBMC was detected; conditions: compounds tested at concentration of 10 uM; human PBMCs cultured 20-22 hours; supernatant ELISA
Protocol: (§1) The compound functionality was tested for some of the compounds prepared by stimulation and determination of cytokine production in PBMCs.
(§2) Human PBMCs were prepared from buffy coat obtained from healthy volunteer donor by Ficoll centrifugation and were adjusted to the final cell concentration to 1×10^6 cells/mL.
(§3) For evaluation of compound activities, 1×10^5 PBMCs were plated in a 96-well plate in 100 μl of RPMI 1640 complete medium (cat no. 31800-022, GIBCO by Life Technologies, Grand Island, NY, USA) supplemented with 10% fetal bovine serum, the tested compound was first dissolved in DMSO and further diluted in PBS and RPMI 1640 medium to the final concentration of […] (corresponding to 6.28 μg/mL), then 3-fold serially dilution was made in a 96-well round-bottom plate. 100 μl diluted compound was added to the same volume of 1×10^5 PBMCs plate and cultured for 20-22 hours at 37° C. in a humidified atmosphere of 5% CO2. The supernatant was collected for human IFN-α, IL12(p70) and IL-6 analysis by ELISA assay according to the manufacturer's instructions (Mabtech AB, Sweden). Resiquimod was used as a positive control.

[2] = test system: Human PBMCs; experiment: Cytokine production in PBMCs: human IL-6 by ELISA; type: cell-based; design: key: ″+″ means that there was production of IFNa or IL-6 on PBMC; ″−″means that noproduction of IFNa or IL-6 on PBMC was detected; conditions: compounds tested at concentration of 10 uM; human PBMCs cultured 20-22 hours; supernatant ELISA
Protocol: as §1, §2, §3

Compound: CCCCCCCCCCCCCCCCCC(=O)NCCCOc1cccc2nc(N)c3nc(COCC)n(C)c3c12 [Compound 23, N-(3-((4-amino-2-(ethoxymethyl)-1-methyl-1H-imidazo[4,5-c]quinolin-9-yl)oxy)propyl)stearamide]
- Production of IFNa on PBMC [1]: +
- Production of IL−6 on PBMC [2]: +

Compound: CCOCc1nc2c(N)nc3cccc(OCCCCNC(C)=O)c3c2n1C [Compound 24, N-(4-((4-amino-2-(ethoxymethyl)-1-methyl-1H-imidazo[4,5-c]quinolin-9-yl)oxy)butyl)acetamide]
- Production of IFNa on PBMC [1]: +
- Production of IL−6 on PBMC [2]: +

Compound: CCCCCCCCCCCCCCCCCC(=O)NCCCCOc1cccc2nc(N)c3nc(COCC)n(C)c3c12 [Compound 25, N-(4-((4-amino-2-(ethoxymethyl)-1-methyl-1H-imidazo[4,5-c]quinolin-9-yl)oxy)butyl)-stearamide]
- Production of IFNa on PBMC [1]: +
- Production of IL−6 on PBMC [2]: +

Compound: CCOCc1nc2c(N)nc3cccc(OC4CCOC4)c3c2n1C (centres unmarked) [Compound 27, 2-(ethoxymethyl)-1-methyl-9-((tetrahydrofuran-3-yl)oxy)-1H-imidazo[4,5-c]quinolin-4-amine]
- Production of IFNa on PBMC [1]: +
- Production of IL−6 on PBMC [2]: +

Compound: CCOCc1nc2c(N)nc3cccc(OC4CCNC4)c3c2n1C (centres unmarked) [Compound 28, 2-(ethoxymethyl)-1-methyl-9-(pyrrolidin-3-yloxy)-1H-imidazo[4,5-c]quinolin-4-amine]
- Production of IFNa on PBMC [1]: +
- Production of IL−6 on PBMC [2]: +

Compound: CCOCc1nc2c(N)nc3cccc(OC4CCNCC4)c3c2n1C [Compound 29, 2-(ethoxymethyl)-1-methyl-9-(piperidin-4-yloxy)-1H-imidazo[4,5-c]quinolin-4-amine]
- Production of IFNa on PBMC [1]: +
- Production of IL−6 on PBMC [2]: +

Compound: CC(C)CCn1cc2c(n1)c(N)nc1cccc(O)c12 [Compound 31, 4-amino-2-isopentyl-2H-pyrazolo[3,4-c]quinolin-9-ol]
- Production of IFNa on PBMC [1]: −
- Production of IL−6 on PBMC [2]: −

Compound: CC(C)CCOc1cccc2nc(N)c3nn(CCC(C)C)cc3c12 [Compound 32, 2-isopentyl-9-(isopentyloxy)-2H-pyrazolo[3,4-c]quinolin-4-amine]
- Production of IFNa on PBMC [1]: −
- Production of IL−6 on PBMC [2]: −

Compound: CCCCn1cc2c(n1)c(N)nc1cccc(OCCC(C)C)c12 [Compound 33, 2-butyl-9-(isopentyloxy)-2H-pyrazolo[3,4-c]quinolin-4-amine]
- Production of IFNa on PBMC [1]: −
- Production of IL−6 on PBMC [2]: +

Compound: CCCCCCCCCCCCCCCC(=O)NCCCOc1cccc2nc(N)c3nc(COCC)n(C)c3c12 [Compound 34, N-(3-((4-amino-2-(ethoxymethyl)-1-methyl-1H-imidazo[4,5-c]quinolin-9-yl)oxy)propyl)palmitamide]
- Production of IFNa on PBMC [1]: +
- Production of IL−6 on PBMC [2]: +

Compound: CCCCCCCCCCCCCCCC(=O)NCCCCOc1cccc2nc(N)c3nc(COCC)n(C)c3c12 [Compound 35, N-(4-((4-amino-2-(ethoxymethyl)-1-methyl-1H-imidazo[4,5-c]quinolin-9-yl)oxy)butyl)palmitamide]
- Production of IFNa on PBMC [1]: +
- Production of IL−6 on PBMC [2]: +

Compound: CCOCc1nc2c(N)nc3cccc(OCCCN)c3c2n1C [Compound 36, 9-(3-aminopropoxy)-2-(ethoxymethyl)-1-methyl-1H-imidazo[4,5-c]quinolin-4-amine]
- Production of IFNa on PBMC [1]: +
- Production of IL−6 on PBMC [2]: +

Compound: CCOCc1nc2c(N)nc3cccc(OC(C)C)c3c2n1C [Compound 37, 2-(ethoxymethyl)-9-isopropoxy-1-methyl-1H-imidazo[4,5-c]quinolin-4-amine]
- Production of IFNa on PBMC [1]: +
- Production of IL−6 on PBMC [2]: +

Compound: CCOCc1nc2c(N)nc3cccc(OCC(C)(C)O)c3c2n1C [Compound 38, 1-((4-amino-2-(ethoxymethyl)-1-methyl-1H-imidazo[4,5-c]quinolin-9-yl)oxy)-2-methylpropan-2-ol]
- Production of IFNa on PBMC [1]: +
- Production of IL−6 on PBMC [2]: +

Compound: CCOCc1nc2c(N)nc3cccc4c3c2n1CCO4 [Compound 39, 2-(ethoxymethyl)-3,4-dihydro-5-oxa-1,2a,9-triazanaphtho[2,1,8-cde]azulen-10-amine]
- Production of IFNa on PBMC [1]: +
- Production of IL−6 on PBMC [2]: +

Compound: CCOCc1nc2c(N)nc3cccc4c3c2n1C[C@](C)(O)CO4 [Compound 42, (S)-2-amino-12-(ethoxymethyl)-6-methyl-6,7-dihydro-5H-3,4-(azenometheno)[1,5]oxazocino[4,3,2-de]quinolin-6-ol]
- Production of IFNa on PBMC [1]: +
- Production of IL−6 on PBMC [2]: +
